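GI50 is the concentration that inhibits growth by half. At the TGI there is no net growth.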
Tests used:
Assay in all cases: growth of human tumour cells (NCI), 384-well format
SF-295 CNS = system: SF-295 CNS
T-47D breast = system: T-47D breast
KM12 colon = system: KM12 colon
MALME-3M melanoma = system: MALME-3M melanoma
SNB-75 CNS = system: SNB-75 CNS
TK-10 renal = system: TK-10 renal
SNB-19 CNS = system: SNB-19 CNS
HT29 colon = system: HT29 colon
HOP-92 NSCLC = system: HOP-92 NSCLC
NCI-H226 lung = system: NCI-H226 lung
K-562 leukemia = system: K-562 leukemia
UACC-62 melanoma = system: UACC-62 melanoma
RPMI-8226 leukemia = system: RPMI-8226 leukemia

For `N#CCC1(n2cc(-c3ncnc4[nH]ccc34)cn2)CN(C2CCN(C(=O)c3ccnc(C(F)(F)F)c3F)CC2)C1`, the GI50 (SF-295 CNS) was 72.9 µM, the TGI (SF-295 CNS) was > 100 µM and the GI50 (T-47D breast) was 49.6 µM. The TGI (T-47D breast) was > 100 µM, the GI50 (KM12 colon) was 42.3 µM and the TGI (KM12 colon) was > 100 µM. The GI50 (MALME-3M melanoma) was > 75.4 µM, the TGI (MALME-3M melanoma) was > 100 µM and the GI50 (SNB-75 CNS) was > 58 µM. The TGI (SNB-75 CNS) was > 100 µM, the GI50 (TK-10 renal) was > 100 µM and the TGI (TK-10 renal) was > 100 µM. The GI50 (SNB-19 CNS) was > 100 µM, the TGI (SNB-19 CNS) was > 100 µM and the GI50 (HT29 colon) was > 73 µM. The TGI (HT29 colon) was > 100 µM, the GI50 (HOP-92 NSCLC) was 40.1 µM and the TGI (HOP-92 NSCLC) was > 100 µM. For the same compound, the GI50 (NCI-H226 lung) was 33.5 µM, the TGI (NCI-H226 lung) was > 82.9 µM and the GI50 (K-562 leukemia) was 34.5 µM. For the same compound, the TGI (K-562 leukemia) was > 100 µM, the GI50 (UACC-62 melanoma) was > 61.3 µM and the TGI (UACC-62 melanoma) was > 100 µM. For the same compound, the GI50 (RPMI-8226 leukemia) was 22.2 µM and the TGI (RPMI-8226 leukemia) was 65.7 µM.
`CNCc1ccc(-c2[nH]c3cc(F)cc4c3c2CCNC4=O)cc1` was tested, and the GI50 (SF-295 CNS) was 8.3 µM, the TGI (SF-295 CNS) was 22.4 µM and the GI50 (T-47D breast) was 16.9 µM. For the same compound, the TGI (T-47D breast) was 36.9 µM, the GI50 (KM12 colon) was 15.7 µM and the TGI (KM12 colon) was 30.2 µM. It also gave a GI50 (MALME-3M melanoma) of 16.9 µM, a TGI (MALME-3M melanoma) of 30.7 µM and a GI50 (SNB-75 CNS) of 13.2 µM. For the same compound, the TGI (SNB-75 CNS) was 26.4 µM, the GI50 (TK-10 renal) was 18.8 µM and the TGI (TK-10 renal) was 46.5 µM. The GI50 (SNB-19 CNS) was 19 µM, the TGI (SNB-19 CNS) was > 48.4 µM and the GI50 (HT29 colon) was 10 µM. The TGI (HT29 colon) was 23.4 µM, the GI50 (HOP-92 NSCLC) was 12.9 µM and the TGI (HOP-92 NSCLC) was 27.9 µM. It also gave a GI50 (NCI-H226 lung) of 7.9 µM, a TGI (NCI-H226 lung) of 21.9 µM and a GI50 (K-562 leukemia) of 7.92 µM. For the same compound, the TGI (K-562 leukemia) was 20.1 µM, the GI50 (UACC-62 melanoma) was 12.4 µM and the TGI (UACC-62 melanoma) was 25 µM. For the same compound, the GI50 (RPMI-8226 leukemia) was 8.37 µM and the TGI (RPMI-8226 leukemia) was 21.6 µM.
